Measured values taken from patent publication US10562944B2, “Herbicide-resistant protein, encoding gene and use thereof” (BEIJING DABEINONG BIOTECHNOLOGY CO., LTD., priority 2015, dated 2020).

Key:
[1] = tested on: Arabidopsis T1 plants transformed with 24DT21 nucleotide sequence; experiment: Herbicide resistance effect test of transgenic Arabidopsis T1 plants (spraying); type: in vivo, Arabidopsis thaliana; settings: genotype 24DT21, 560 g ae/ha (1x)
Description: (§1) 24DT21 gene was used to transform Arabidopsis for the first time. At first, T1 transformants were selected from the background of un-transformed seeds, using glufosinate-ammonium selection scheme. About 20000 T1 seeds are screened among which 139 strains of T1 generation positive transformants (PAT gene) were identified, i.e. the transformation efficiency was about 0.7%. Herbicide resistance effect tests to 2,4-D dimethyl ammonium salt and agroxone of Arabidopsis T1 plants transformed with 24DT21 nucleotide sequence, control nucleotide sequence respectively and wild-type Arabidopsis plants were performed after 18 days of planting.
(§2) Arabidopsis T1 plants transformed with 24DT21 nucleotide sequence, control nucleotide sequence respectively and wild-type Arabidopsis plants were sprayed with 2,4-D dimethyl ammonium salt (560 g ae/ha, 1-fold concentration in field), agroxone (560 g ae/ha, 1-fold concentration in field) and blank solvent (water). Resistance conditions of the plants were counted 7 days and 14 days after spraying. Plants with growth conditions consistent with blank solvent (water) 7 days after spaying were classified as highly resistant plants; Plants with curly rosette leaves 7 days after spaying were classified as moderately resistant plants; Plants incapable of bolting 14 days after spaying were classified as low-resistant plants and the dead plants 14 days after spaying were classified as non-resistant plants. Because each Arabidopsis T1 plant is an independent transformation event, significant differences of individual T1 responses can be expected under a given dose.

[2] = tested on: Arabidopsis T1 plants transformed with control nucleotide sequence; experiment: Herbicide resistance effect test of Arabidopsis T1 plants, control sequence (spraying); type: in vivo, Arabidopsis thaliana; settings: genotype Control, 560 g ae/ha (1x)
Description: as §1, §2

[3] = tested on: wild-type Arabidopsis plants; experiment: Herbicide resistance effect test of wild-type Arabidopsis (spraying); type: in vivo, Arabidopsis thaliana; settings: genotype Wild, 560 g ae/ha (1x)
Description: as §1, §2

[4] = tested on: Soybean plants containing 24DT21 nucleotide sequence (S1, S2, S3); experiment: Herbicide-resistance effect of transgenic soybean T1 plants (spraying, damage degree); type: in vivo; settings: 2240 g ae/ha (4x); for Average damage % 6 HAT: 6 hours after spraying; for Average damage % 2 DAT: 2 days after spraying; for Average damage % 7 DAT: 7 days after spraying; for Average damage % 14 DAT: 14 days after spraying
Experimental: (§3) Herbicide resistance effects tests to 2,4-D dimethyl ammonium salt and agroxone of soybean plants containing 24DT21 nucleotide sequence and control nucleotide sequence respectively and wild type soybean plants (stages V3-V4) were performed respectively.
(§4) Soybean plants containing 24DT21 nucleotide sequence, control nucleotide sequence and wild type soybean plants were taken and spayed with 2,4-D dimethyl ammonium salt (2240 g ae/ha, four-folds concentration in field), agroxone (2240 g ae/ha, four-folds concentration in field) and blank solvent (water). Take statistics of the damage degree of each plant caused by herbicides according to the curling degree of leaves and the damage degree of growing point six hours ([…]), two days (2DAT), seven days (7DAT) and 14 days (14DAT) after spraying respectively: if leaves are flat like wild-type leaves and the growing point is intact, the damage degree is 0%; if leaves curl up and wilt and the growing point is died, the damage degree is 100%. There are three strains contained a transferred 24DT21 nucleotide sequence (S1, S2 and S3), two strains contained a transferred control sequence (S4 and S5) and one wild-type strain (CK1) in total; select 10˜15 plants from each strain for testing.

[5] = tested on: Soybean plants containing control nucleotide sequence (S4, S5); experiment: Herbicide-resistance effect of soybean plants, control sequence (spraying, damage degree); type: in vivo; settings: 2240 g ae/ha (4x); for Average damage % 6 HAT: 6 hours after spraying; for Average damage % 2 DAT: 2 days after spraying; for Average damage % 7 DAT: 7 days after spraying; for Average damage % 14 DAT: 14 days after spraying
Experimental: as §3, §4

[6] = tested on: wild type soybean plants (CK1); experiment: Herbicide-resistance effect of wild type soybean (spraying, damage degree); type: in vivo; settings: wild-type soybean strain CK1, 2240 g ae/ha (4x)
Experimental: as §3, §4

[7] = tested on: Corn plants containing 24DT21 nucleotide sequence (S6, S7, S8); experiment: Herbicide-resistance effect test of transgenic corn T1 plants (spraying, prop root development); type: in vivo; settings: 8960 g ae/ha (16x), 21 days after spraying; for Abnormal development of brace roots / Normal development of brace roots: number of plants
Experimental: (§5) Herbicide resistance effects tests to 2,4-D dimethyl ammonium salt and agroxone of corn plants containing 24DT21 nucleotide sequence, control nucleotide sequence respectively and wild type corn plants (stages V3-V4) were performed respectively.
(§6) Corn plants containing 24DT21 nucleotide sequence, control nucleotide sequence respectively and wild type corn plants were taken and spayed with 2,4-D dimethyl ammonium salt (8960 g ae/ha, 16-folds concentration in field), agroxone (8960 g ae/ha, 16-folds concentration in field) and blank solvent (water) respectively. Prop root development was counted 21 days after spaying. Three strains (S6, S7 and S8) of corn plants transformed with 24DT21 nucleotide sequence, two strains (S9 and S10) of corn plants transformed with control nucleotide sequence and 1 strain of wild type (CK2) corn were selected and 10-15 plants from each stain were tested.

[8] = tested on: Corn plants containing control nucleotide sequence (S9, S10); experiment: Herbicide-resistance effect test of corn plants, control sequence (spraying, prop root development); type: in vivo; settings: 8960 g ae/ha (16x), 21 days after spraying; for Abnormal development of brace roots / Normal development of brace roots: number of plants
Experimental: as §5, §6

[9] = tested on: wild type corn plants (CK2); experiment: Herbicide-resistance effect test of wild type corn (spraying, prop root development); type: in vivo; settings: wild type corn strain CK2, 8960 g ae/ha (16x), 21 days after spraying
Experimental: as §5, §6

[10] = number of plants of 32 dead 14 days after spraying
[11] = number of plants of 32 incapable of bolting 14 days after spraying
[12] = number of plants of 32 with curly rosette leaves 7 days after spraying
[13] = number of plants of 32 with growth consistent with blank solvent 7 days after spraying
[14] = soybean strain S4 (control sequence)
[15] = soybean strain S5 (control sequence)
[16] = corn strain S9 (control sequence)
[17] = corn strain S10 (control sequence)

Cc1cc(Cl)ccc1OCC(=O)O [agroxone]
Non-resistant [1, 10]: 7 | Low resistant [1, 11]: 2 | Moderate resistant [1, 12]: 2 | High resistant [1, 13]: 21 | Non-resistant [2, 10]: 32 | Low resistant [2, 11]: 0 | Moderate resistant [2, 12]: 0 | High resistant [2, 13]: 0 | Non-resistant [3, 10]: 32 | Low resistant [3, 11]: 0 | Moderate resistant [3, 12]: 0 | High resistant [3, 13]: 0 | Average damage % 6 HAT ([4]; soybean strain S1 (24DT21)): 10% | Average damage % 2 DAT ([4]; soybean strain S1 (24DT21)): 5% | Average damage % 7 DAT ([4]; soybean strain S1 (24DT21)): 0% | Average damage % 14 DAT ([4]; soybean strain S1 (24DT21)): 0% | Average damage % 6 HAT ([4]; soybean strain S2 (24DT21)): 16% | Average damage % 2 DAT ([4]; soybean strain S2 (24DT21)): 11% | Average damage % 7 DAT ([4]; soybean strain S2 (24DT21)): 6% | Average damage % 14 DAT ([4]; soybean strain S2 (24DT21)): 0% | Average damage % 6 HAT ([4]; soybean strain S3 (24DT21)): 7% | Average damage % 2 DAT ([4]; soybean strain S3 (24DT21)): 4% | Average damage % 7 DAT ([4]; soybean strain S3 (24DT21)): 0% | Average damage % 14 DAT ([4]; soybean strain S3 (24DT21)): 0% | Average damage % 6 HAT [5, 14]: 38% | Average damage % 2 DAT [5, 14]: 69% | Average damage % 7 DAT [5, 14]: 87% | Average damage % 14 DAT [5, 14]: 100% | Average damage % 6 HAT [5, 15]: 47% | Average damage % 2 DAT [5, 15]: 74% | Average damage % 7 DAT [5, 15]: 92% | Average damage % 14 DAT [5, 15]: 100% | Average damage % 6 HAT ([6]; 6 hours after spraying): 34% | Average damage % 2 DAT ([6]; 2 days after spraying): 61% | Average damage % 7 DAT ([6]; 7 days after spraying): 82% | Average damage % 14 DAT ([6]; 14 days after spraying): 100% | Proportion of normal development of brace roots ([7]; corn strain S6 (24DT21)): 100.00% | Abnormal development of brace roots ([7]; corn strain S6 (24DT21)): 0 | Normal development of brace roots ([7]; corn strain S6 (24DT21)): 11 | Proportion of normal development of brace roots ([7]; corn strain S7 (24DT21)): 100.00% | Abnormal development of brace roots ([7]; corn strain S7 (24DT21)): 0 | Normal development of brace roots ([7]; corn strain S7 (24DT21)): 12 | Proportion of normal development of brace roots ([7]; corn strain S8 (24DT21)): 100.00% | Abnormal development of brace roots ([7]; corn strain S8 (24DT21)): 0 | Normal development of brace roots ([7]; corn strain S8 (24DT21)): 13 | Proportion of normal development of brace roots [8, 16]: 0% | Abnormal development of brace roots [8, 16]: 13 | Normal development of brace roots [8, 16]: 0 | Proportion of normal development of brace roots [8, 17]: 0% | Abnormal development of brace roots [8, 17]: 10 | Normal development of brace roots [8, 17]: 0 | Proportion of normal development of brace roots [9]: 0% | Abnormal development of brace roots ([9]; number of plants): 15 | Normal development of brace roots ([9]; number of plants): 0
